Values of other authors, collected in US20160253451A1, “METHOD OF USING A WATER-BASED PHARMACOPHORE” (KOREA UNIVERSITY, priority 2013, published 2016).

Biological target: streptavidin (Streptomyces avidinii, UniProt P22629)
Details: streptavidin-biotin complex

Chain of streptavidin (P22629 25-183, species assumed): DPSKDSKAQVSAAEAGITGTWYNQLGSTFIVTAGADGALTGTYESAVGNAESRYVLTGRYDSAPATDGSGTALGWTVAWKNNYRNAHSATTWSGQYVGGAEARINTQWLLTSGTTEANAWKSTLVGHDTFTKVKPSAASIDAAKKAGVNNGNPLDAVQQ

O=C(O)CCCC[C@@H]1SC[C@@H]2NC(=O)N[C@@H]21 [biotin]
actual affinity: -18.3 kcal/mol
